Experiments:
Test in all cases: relative viability (nuclei count vs DMSO), 5 days (fraction); higher = more cells survive
[1] = compound: C[C@]12O[C@H](C[C@]1(O)CO)n1c3ccccc3c3c4c(c5c6ccccc6n2c5c31)CNC4=O [Lestaurtinib] + CC(C)C[C@H](NC(=O)[C@H](Cc1ccccc1)NC(=O)c1cnccn1)B(O)O [Bortezomib] (partner 0.002 µM)
Outline: (§1)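 A single step with final 0.05% Triton X-100, 1% formaldehyde and 1 ug/ml Hoechst fixed the cells and stained nuclei 5 days after treatment. Lung cancer cell lines in 1536-well plates had been treated by pin tool the day after seeding with one drug alone or a fixed anchor-drug dose plus five library-drug doses (not always all listed) in √10 steps, and nuclei were counted on 4× images. Relative viability is the ratio of nuclei in treated wells to nuclei in vehicle wells, taken as the median of duplicate plates.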

TPCA-1 + Tozasertib = compound: C1=CC(=CC=C1C2=CC(=C(S2)NC(=O)N)C(=O)N)F [TPCA-1] + Cc1cc(Nc2cc(N3CCN(C)CC3)nc(Sc3ccc(NC(=O)C4CC4)cc3)n2)n[nH]1 [Tozasertib] (partner 0.1 µM)
Outline: as §1

TPCA-1 + Dasatinib = compound: C1=CC(=CC=C1C2=CC(=C(S2)NC(=O)N)C(=O)N)F [TPCA-1] + Cc1nc(Nc2ncc(C(=O)Nc3c(C)cccc3Cl)s2)cc(N2CCN(CCO)CC2)n1 [Dasatinib] (partner 0.075 µM)
Outline: as §1

[2] = compound: C[C@]12O[C@H](C[C@]1(O)CO)n1c3ccccc3c3c4c(c5c6ccccc6n2c5c31)CNC4=O [Lestaurtinib] + Nc1ncn([C@H]2C[C@H](O)[C@@H](CO)O2)c(=O)n1 [Decitabine] (partner 2 µM)
Outline: as §1

UMC-11
relative viability ([1]; first compound 0.005 µM): 0.602
relative viability ([1]; first compound 0.01581 µM): 0.621
relative viability ([1]; first compound 0.05 µM): 0.321
relative viability ([1]; first compound 0.1581 µM): 0.299
relative viability ([1]; first compound 0.5 µM): 0.171
relative viability (TPCA-1 + Tozasertib; first compound 0.04 µM): 0.208
relative viability (TPCA-1 + Tozasertib; first compound 0.1265 µM): 0.207
relative viability (TPCA-1 + Tozasertib; first compound 0.4 µM): 0.216
relative viability (TPCA-1 + Tozasertib; first compound 1.265 µM): 0.178
relative viability (TPCA-1 + Tozasertib; first compound 4 µM): 0.187
relative viability (TPCA-1 + Dasatinib; first compound 0.04 µM): 0.494
relative viability (TPCA-1 + Dasatinib; first compound 0.1265 µM): 0.443
relative viability (TPCA-1 + Dasatinib; first compound 0.4 µM): 0.494
relative viability (TPCA-1 + Dasatinib; first compound 1.265 µM): 0.457
relative viability (TPCA-1 + Dasatinib; first compound 4 µM): 0.222
relative viability ([2]; first compound 0.005 µM): 0.63
relative viability ([2]; first compound 0.01581 µM): 1.49
relative viability ([2]; first compound 0.05 µM): 0.544
relative viability ([2]; first compound 0.1581 µM): 0.241
relative viability ([2]; first compound 0.5 µM): 0.218
